Experimental data as given in patent US8790902B2, “Microorganisms having enhanced tolerance to inhibitors and stress” (UT-Batelle, LLC, priority 2009, dated 2014).
“Also recorded” adds a separate entry of the source. Like-named read-outs stand apart in the source and are kept apart here.

Legend:
ZM4 (p42-0347) = assay: Bioscreen growth of ZM4 (p42-0347) in RM with sodium and acetate ions; assay type: cell-based, Zymomonas mobilis; conditions: for Final Cell Density / Growth rate: ZM4 (p42-0347), RM pH 5.0 supplemented with 195 mM of the chemical, anaerobic
Procedure: (§1) FIGS. 3A-3C. […] Z. mobilis strains were grown in RM (pH5.0) overnight, 20-μL culture were then transferred into 250-μL, RM media in the Bioscreen plate. […] Strains included in this study are: ZM4: Zymomonas mobilis ZM4 wild-type; AcR: ZM4 acetate tolerant mutant (Joachimstahl 1998); ZM4 (p42-0347): ZM4 containing a gateway plasmid p42-0347 over-expressing ZM4 gene ZMO0347; AcRIM0347: AcR insertional mutant of ZMO0347; AcRIM0347 (p42-0347): AcRIM0347 containing gateway plasmid p42-0347 over-expressing ZM4 gene ZMO0347. […] Triplicates were used for each condition.
(§2) FIGS. 4A-4E. […] Z. mobilis strains were grown in RM (pH5.0) overnight, 5-μL culture were then transferred into 250-μL RM media in the Bioscreen plate. […] Strains included in this study are: ZM4: Zymomonas mobilis ZM4 wild-type; AcR: ZM4 acetate tolerant mutant; ZM4 (p42-0347): ZM4 containing a gateway plasmid p42-0347 to express ZM4 gene ZMO0347; AcRIM0347: AcR insertional mutant of ZMO0347; AcRIM0347 (p42-0347): AcRIM0347 containing gateway plasmid p42-0347. […] Duplicate biological replicates were used for each condition.
(§3) American Type Culture Collection (ATCC31821) and the Z. mobilis acetate tolerant strain AcR has been described previously (Joachimsthal et al. 2000). ZM4 and AcR were cultured in RM medium at 30° C. S. cerevisiae wild-type, deletion mutant and GST-fusion ORF over-expression strains were obtained through Open Biosystems (Huntsville, Ala.). S. cerevisiae strains were cultured in rich YPD media. CM media with 2% glucose was used for S. cerevisiae wild-type and S. cerevisiae deletion mutants, CM media with 2% glucose minus uracil was used for S. cerevisiae GST-over expressing strains, 2% galactose was used to induce the GST-fusion strains. Plasmid-containing strains were routinely grown with antibiotics at the following concentrations (μg/mL): kanamycin of 50 for E. coli and 200 for ZM4; tetracycline, 10 for E. coli and 20 for ZM4; and gentamicin, 10 for E. coli. G418 of 200 for S. cerevisiae YKO deletion mutants. Growth was monitored turbidometrically by measuring optical density at 600nm periodically with the Bioscreen C automated microbiology growth curve analysis system (Growth Curve USA, Piscataway, N.J.).

[1] = tested on: Zymomonas mobilis ZM4 wild-type; assay: Bioscreen growth of Z. mobilis ZM4 wild-type in RM with inhibitors; assay type: cell-based; conditions: for Final Cell Density / Growth rate: ZM4
Procedure: as §1, §2
(§4) FIGS. 5A-5E. […] Z. mobilis strains were grown in RM (pH 5.0) overnight, 5-μL culture were then transferred into 250-μL RM media in the Bioscreen plate. […] Strains included in this study are: ZM4: Zymomonas mobilis ZM4 wild-type; AcR: ZM4 acetate tolerant mutant; AcRIM0347: AcR insertional mutant of ZMO0347; AcRIM0347 (p42-0347): AcRIM0347 containing gateway plasmid p42-0347 over-expressing ZM4 gene ZMO0347.
as §3

[2] = tested on: AcR: ZM4 acetate tolerant mutant; assay type: cell-based, Zymomonas mobilis; conditions: for Final Cell Density / Growth rate: AcR
Procedure: as §1, §2, §4, §3

AcRIM0347 (p42-0347) = assay type: cell-based, Zymomonas mobilis
Procedure: as §1, §2, §4, §3

[3] = tested on: AcRIM0347: AcR insertional mutant of ZMO0347; assay type: cell-based, Zymomonas mobilis; conditions: for Final Cell Density / Growth rate: AcRIM0347
Procedure: as §1, §2, §4, §3

Zymomonas mobilis = conditions: cited from earlier work
[4] = tested on: S. cerevisiae Lsm deletion mutants; assay type: cell-based; conditions: sodium acetate 40 g/L; Lsm1, 6, 7, 9, 12, 13, 16 deletions
Procedure: (§5) FIGS. 6A-6B. […] S. cerevisiae strains were grown in CM with 2% glucose for wild-type BY4741 and the deletion mutants, CM with 2% glucose minus uracil for GST over-expression strains. Five-μL culture was then transferred into 300-μL CM broth in the Bioscreen plate.
(§6) FIGS. 7A-7P. […] S. cerevisiae strains were grown in CM with 2% glucose (CM+glucose) for wild-type BY4741 and the deletion mutants, CM with 2% glucose and 2% galactose minus uracil (CM+glucose+2% galactose) for GST overexpression strains. A 5-μL culture was then transferred into 250-μL CM broth in the Bioscreen plate.
American Type Culture Collection (ATCC31821) and the Z. mobilis acetate tolerant strain AcR has been described previously (Joachimsthal et al. 2000). ZM4 and AcR were cultured in RM medium at 30° C. S. cerevisiae wild-type, deletion mutant and GST-fusion ORF over-expression strains were obtained through Open Biosystems (Huntsville, Ala.). S. cerevisiae strains were cultured in rich YPD media. […] Growth was monitored turbidometrically by measuring optical density at 600nm periodically with the Bioscreen C automated microbiology growth curve analysis system (Growth Curve USA, Piscataway, N.J.).

[5] = tested on: S. cerevisiae Lsm protein over-expressing strains; assay: Bioscreen growth of S. cerevisiae Lsm protein over-expressing (GST) strains with inhibitors; assay type: cell-based
Procedure: as §5, §6, §3

ZM4 = conditions: ethanol production; cited from earlier work
AcR mutant = conditions: cited from earlier work
Z. mobilis = assay: Bioscreen growth of Z. mobilis with pretreatment inhibitors (strain not specified); assay type: cell-based, Zymomonas mobilis
Procedure: FIGS. 5A-5E. Z. mobilis Hfq conferred tolerance to different classes of pretreatment inhibitors. Z. mobilis strains were grown in RM (pH 5.0) overnight, 5-μL culture were then transferred into 250-μL RM media in the Bioscreen plate. The growth differences of different strains were monitored by Bioscreen (Growth Curves USA, NJ) under anaerobic conditions in RM, pH 5.0 (A), RM with 1 g/L vanillin, pH 5.0 (B), 1 g/L furfural, pH 5.0 (C), 1 g/L HMF, pH 5.0 (D) and 0.001% H2O2 (E). Strains included in this study are: ZM4: Zymomonas mobilis ZM4 wild-type; AcR: ZM4 acetate tolerant mutant; AcRIM0347: AcR insertional mutant of ZMO0347; AcRIM0347 (p42-0347): AcRIM0347 containing gateway plasmid p42-0347 over-expressing ZM4 gene ZMO0347. This experiment has been repeated at least three times with similar result for hydrogen peroxide growth and in duplicate for the vanillin growth.
as §3

[6] = RM pH 5.0 supplemented with 195 mM of the chemical, anaerobic, NA = lack of growth
[7] = RM pH 5.0 supplemented with 195 mM of the chemical, anaerobic
[8] = AcRIM0347 (p42-0347), RM pH 5.0 supplemented with 195 mM of the chemical, anaerobic
[9] = 16 g/L (195 mM) sodium acetate in RM
[10] = RM with HMF 0.75 g/L, furfural or vanillin 1 g/L
[11] = AcRIM0347(p42-0347), RM with HMF 0.75 g/L, furfural or vanillin 1 g/L

## CC(=O)O.N [NH4OAc, ammonium acetate]
ZM4 (p42-0347)
  Final Cell Density: 0.37 ± 0.008 OD600 nm
  Growth rate: 0.19 ± 0.007 h⁻¹
[1]; [6]
  Final Cell Density: 0.43 ± 0.01 OD600 nm
  Growth rate: 0.20 ± 0.008 h⁻¹
[2]; [7]
  Final Cell Density: 0.42 ± 0.006 OD600 nm
  Growth rate: 0.19 ± 0.005 h⁻¹
AcRIM0347 (p42-0347); [8]
  Final Cell Density: 0.32 ± 0.007 OD600 nm
  Growth rate: 0.22 ± 0.002 h⁻¹
[3]; 195 mM in RM
  Growth of hfq mutant AcRIM0347 in the presence of acetate salt: unable to grow

## CCO [ethanol]
Zymomonas mobilis
  Ethanol tolerance: 12%

## CC(=O)[O-].[Na+] [NaAc, sodium acetate]
ZM4 (p42-0347); [9]
  Growth of ZM4 (p42-0347) in the presence of sodium acetate: able to grow
ZM4 (p42-0347)
  Final Cell Density: 0.59 ± 0.002 OD600 nm
  Growth rate: 0.27 ± 0.004 h⁻¹
[1]; 195 mM in RM
  Relative inhibitory effect on wild-type Z. mobilis growth among sodium and acetate salts: most significant inhibitory effect
[1]; [9]
  Growth of wild-type ZM4 in the presence of sodium acetate: unable to grow; also recorded: completely inhibited
[4]
  Growth of Lsm deletion mutants in the presence of sodium acetate: negative effects on the growth
[5]; sodium acetate 40 g/L, Lsm1, 6, 9, 12, 13, 16
  Growth of Lsm protein over-expressing strains in the presence of sodium acetate: enhanced growth
ZM4
  Sodium acetate concentration above which parent ZM4 was inhibited significantly: above 12 g/L
[2]; [7]
  Final Cell Density: 0.63 ± 0.02 OD600 nm
  Growth rate: 0.29 ± 0.04 h⁻¹
AcRIM0347 (p42-0347); [8]
  Final Cell Density: 0.45 ± 0.002 OD600 nm
  Growth rate: 0.16 ± 0.002 h⁻¹
[3]; 195 mM in RM
  Reduction of growth rate and final cell density of AcRIM0347 compared to parental strain AcR: about 60%
[3]; [6]
  Final Cell Density: 0.25 ± 0.001 OD600 nm
  Growth rate: 0.12 ± 0.004 h⁻¹
AcR mutant
  Sodium acetate concentration at which AcR was capable of efficient ethanol production: 20 g/L

## COc1cc(C=O)ccc1O [Vanillin, vanillin]
[1]; [10]
  Final Cell Density: 0.69 ± 0.006 OD600 nm
  Growth rate: 0.26 ± 0.001 h⁻¹
[5]; 0.75 g/L
  Growth of Lsm overexpression strains with inhibitor: detrimental effect on growth
[2]; [10]
  Final Cell Density: 0.71 ± 0.01 OD600 nm
  Growth rate: 0.26 ± 0.01 h⁻¹
AcRIM0347 (p42-0347); [11]
  Final Cell Density: 0.70 ± 0.01 OD600 nm
  Growth rate: 0.20 ± 0.003 h⁻¹
AcRIM0347 (p42-0347); Table 4, FIGS. 5A-5D
  Lag phase of AcRIM0347 (p42-0347) versus AcRIM0347 grown with inhibitor: shorter lag phases
[3]; [10]
  Final Cell Density: 0.66 ± 0.01 OD600 nm
  Growth rate: 0.20 ± 0.006 h⁻¹
Z. mobilis; Table 4 conditions
  Relative inhibitory effect on Z. mobilis among vanillin, furfural and HMF: most significant inhibitory effect
Z. mobilis; in the presence of the inhibitor, 11 h without any inhibitor (FIGS. 5A-5D)
  Time to complete active growth and reach the stationary phase: ~21 h

## OO [H2O2, hydrogen peroxide]
[1]; 0.001% H2O2
  Growth of ZM4 in RM medium with H2O2: grew well
[2]; 0.001% H2O2
  Growth of AcR in RM medium with H2O2: grew well
AcRIM0347 (p42-0347); 0.001% H2O2
  Growth of AcRIM0347(p42-0347) in RM medium with H2O2: to grow
[3]; 0.001% H2O2
  Growth of AcRIM0347 in RM medium with H2O2: no observable growth
